Assay results: ChEMBL document CHEMBL5331079, “Novel thiazolidines of potential anti-proliferation properties against esophageal squamous cell carcinoma via ERK pathway” (Eur J Med Chem, 2023)
Active and inactive are the calls of the source. No cut-off for these calls is given here.

Columns and labels:
[1] = tested on: KYSE-30; experiment: Antiproliferative activity against human KYSE-30 cells assessed as inhibition of cell growth incubated for 72 hrs by MTT assay; type: functional, cell-based; settings: KYSE-30, 72 h
[2] = tested on: KYSE-150 cell line; experiment: Inhibition of cell growth in human KYSE-150 cell line at 10 uM incubated for 72 hrs by MTT assay relative to control; type: functional
[3] = tested on: KYSE-150 cell line; experiment: Antiproliferative activity against human KYSE-150 cell line assessed as inhibition of cell growth incubated for 72 hrs by MTT assay; type: functional, cell-based; settings: KYSE-150, 72 h
[4] = Antiproliferative activity against human HET-1A cells assessed as inhibition of cell growth incubated for 72 hrs by MTT assay; type: toxicity, cell-based
[5] = Antiproliferative activity against human NES-G4T cells assessed as inhibition of cell growth incubated for 72 hrs by MTT assay; type: toxicity, cell-based
[6] = tested on: KYSE-30; experiment: Antiproliferative activity against human KYSE-30 cells assessed as reduction of cell viability at 1.25 to 100 uM incubated for 72 hrs by MTT assay; type: functional, cell-based; settings: dose 1.25-100 µM
[7] = tested on: KYSE-150 cell line; experiment: Antiproliferative activity against human KYSE-150 cell line assessed as reduction of cell viability at 1.25 to 100 uM incubated for 72 hrs by MTT assay; type: functional, cell-based; settings: dose 1.25-100 µM
[8] = tested on: HET-1A; experiment: Antiproliferative activity against human HET-1A cells assessed as reduction of cell viability at 1.25 to 100 uM incubated for 72 hrs by MTT assay; type: toxicity, cell-based; settings: dose 1.25-100 µM
[9] = Antiproliferative activity against human NES-G4T cells assessed as reduction of cell viability at 1.25 to 100 uM incubated for 72 hrs by MTT assay; type: toxicity, cell-based; settings: dose 1.25-100 µM
[10] = tested on: KYSE-30; experiment: Induction of apoptosis in human KYSE-30 cells assessed as chromatin condensation at 10 uM incubated upto 72 hrs by DAPI staining based confocal laser scanner microscopy analysis; type: functional, cell-based
[11] = tested on: KYSE-30; experiment: Induction of apoptosis in human KYSE-30 cells assessed as nuclear fragmentation at 10 uM incubated upto 72 hrs by DAPI staining based confocal laser scanner microscopy analysis; type: functional, cell-based
[12] = tested on: KYSE-30; experiment: Induction of apoptosis in human KYSE-30 cells assessed as loss of nuclei integrity at 10 uM incubated for 72 hrs by DAPI staining based confocal laser scanner microscopy analysis; type: functional, cell-based
[13] = tested on: KYSE-150 cell line; experiment: Induction of apoptosis in human KYSE-150 cell line assessed as chromatin condensation at 10 uM incubated upto 72 hrs by DAPI staining based confocal laser scanner microscopy analysis; type: functional
[14] = tested on: KYSE-150 cell line; experiment: Induction of apoptosis in human KYSE-150 cell line assessed as nuclear fragmentation at 10 uM incubated upto 72 hrs by DAPI staining based confocal laser scanner microscopy analysis; type: functional
[15] = tested on: KYSE-150 cell line; experiment: Induction of apoptosis in human […] cell line assessed as loss of nuclei integrity at 10 uM incubated for 72 hrs by DAPI staining based confocal laser scanner microscopy analysis; type: functional
[16] = tested on: KYSE-150 cell line; experiment: Induction of apoptosis in human KYSE-150 cell line assessed as downregulation of ERK protein level incubated for 4 to 12 hrs by Western blotting analysis; type: functional, cell-based; settings: time 4-12 hrs, TDE = time-dependent effect
[17] = tested on: KYSE-150 cell line; experiment: Induction of apoptosis in human KYSE-150 cell line assessed as effect on ratio of ERK phosphorylation incubated for 4 to 12 hrs by Western blotting analysis; type: functional, cell-based; settings: time 4-12 hrs
[18] = tested on: KYSE-150 cell line; experiment: Induction of apoptosis in human KYSE-150 cell line assessed as effect on ratio of AKT phosphorylation incubated for 4 to 12 hrs by Western blotting analysis; type: functional, cell-based; settings: time 4-12 hrs
[19] = tested on: NES-G4T; experiment: Induction of apoptosis in human NES-G4T cells assessed as effect on ratio of ERK phosphorylation incubated for 4 to 12 hrs by Western blotting analysis; type: functional, cell-based; settings: time 4-12 hrs
[20] = tested on: NES-G4T; experiment: Induction of apoptosis in human NES-G4T cells assessed as effect on ratio of AKT phosphorylation incubated for 4 to 12 hrs by Western blotting analysis; type: functional, cell-based; settings: time 4-12 hrs
[21] = tested on: MCF7; experiment: Antiproliferative activity against human MCF7 cells assessed as inhibition of cell growth incubated for 96 hrs by MTT assay; type: functional, cell-based; settings: MCF7, 96 h

Q: With `Cc1ccc(/N=C2/NC(C)(C)/C(=C/c3ccc(Br)cc3)S2)cc1Cl` as the compound, how does the IC50 [1] read?
A: The IC50 was 65.4 µM.

Q: With `CC1(C)N/C(=N/c2ccc(Cl)cc2)S/C1=C\c1ccc(Br)cc1` as the compound, how does the IC50 [1] read?
A: Its IC50 is 64.2 µM.

Q: With `CC1(C)N/C(=N/c2ccc(F)cc2)S/C1=C\c1ccc(Br)cc1` as the compound, how does the IC50 [1] read?
A: The IC50 was 10.6 µM.

Q: With `CC1(C)N/C(=N/c2ccc([N+](=O)[O-])cc2)S/C1=C\c1ccc(Br)cc1` as the compound, how does the IC50 [1] read?
A: Its IC50 is 31.5 µM.

Q: With `COc1ccc(/N=C2/NC(C)(C)/C(=C/c3ccc(Br)cc3)S2)cc1` as the compound, how does the IC50 [1] read?
A: Its IC50 is 14.2 µM.

Q: With `Cc1ccc(/N=C2/NC(C)(C)/C(=C/c3ccc(Br)cc3)S2)cc1` as the compound, how does the IC50 [1] read?
A: Its IC50 is 64.3 µM.

Q: Which IC50 [1] does the source give for `CC1(C)N/C(=N/c2ccc(Br)cc2)S/C1=C\c1ccc(Br)cc1` here?
A: The IC50 was 13.2 µM.

Q: Which IC50 [1] does the source give for `COc1ccc(/N=C2/NC(C)(C)/C(=C/c3ccc(Br)cc3)S2)c([N+](=O)[O-])c1` here?
A: The IC50 was 16.8 µM.

Q: What about the inhibition at 10 µM [2] of the same compound?
A: Its inhibition at 10 µM is 71%.

Q: And the IC50 [3]?
A: Its IC50 is 10.1 µM.

Q: What about the IC50 at 72 h [4] of the same compound?
A: Its IC50 at 72 h is 13 µM.

Q: And the IC50 at 72 h [5]?
A: Its IC50 at 72 h is 202 µM.

Q: What about the Activity [6] of the same compound?
A: The Activity was “Dose-Dependent Effect”.

Q: And the Activity [7]?
A: Its Activity is “Dose-Dependent Effect”.

Q: What about the Activity [8] of the same compound?
A: The Activity was “Toxic”.

Q: What about the Activity [9] of the same compound?
A: Its Activity is “Toxic”.

Q: What about the Activity [10] of the same compound?
A: Its Activity is “Active”.

Q: And the Activity [11]?
A: Its Activity is “Active”.

Q: What about the Activity [12] of the same compound?
A: The Activity was “Active”.

Q: And the Activity [13]?
A: Its Activity is “Active”.

Q: And the Activity [14]?
A: The Activity was “Active”.

Q: What about the Activity [15] of the same compound?
A: The Activity was “Active”.

Q: And the Activity [16]?
A: Its Activity is “Tde”.

Q: And the Activity [17]?
A: Its Activity is “inactive”.

Q: And the Activity [18]?
A: Its Activity is “inactive”.

Q: What about the Activity [19] of the same compound?
A: Its Activity is “inactive”.

Q: And the Activity [20]?
A: The Activity was “inactive”.

Q: With `CNC(C)C#Cc1ccc(OC)cc1` (stereo not given) as the compound, how does the IC50 [21] read?
A: Its IC50 is 0.5 µM.

Q: Which IC50 [1] does the source give for `CC1(C)N/C(=N/c2ccccc2)S/C1=C\c1ccc(Br)cc1` here?
A: Its IC50 is 18.6 µM.

Q: With `COc1ccc(/C=C2\S/C(=N\c3ccccc3)N(C)C2C)cc1` (stereo not given) as the compound, how does the IC50 [21] read?
A: The IC50 was 0.5 µM.
